Data on ten compounds can be found in publication PMC5658662 (Biochemistry, 2017).

Molecules are shown by their SMILES. Values joined by “and” are separate entries in the source; they are usually repeats but may differ in a detail not shown here. Identical values can stand only once. Like-named read-outs stand apart in the source and are kept apart here. Marks after values point to notes of the source that are not given here. Some results are limits rather than exact numbers.

Data set [1] deals with T1, cytochrome P450 OleT (Jeotgalicoccus sp. ATCC 8456, UniProt E9NSU2). In kind it is biochemical.
Data set [2] deals with T1, cytochrome P450 OleT. The following applies: for maximal high-spin conversion: UV-vis titration, low- to high-spin conversion.
Data set [3] concerns the target T1, cytochrome P450 OleT. In kind it is biochemical. Particulars: for % metabolized: 5 μM OleT, 500 μM fatty acid; for % metabolized / product distribution (%) alcohols: slow H2O2 addition; for product distribution (%) 1-alkene: determined from subtraction of product alcohols from the total FA metabolized; for alcohol regiospecificity α: share of alcohols hydroxylated at Cα; for alcohol regiospecificity β: share of alcohols hydroxylated at Cβ; for product distribution (%) alcohols: share of total product.

The target in data set [4] is T1, cytochrome P450 OleT. Put plainly: Stopped flow transient kinetics of OleT:fatty acid complexes with H2O2. In kind it is biochemical.
In data set [5] the target is T1, cytochrome P450 OleT. As to the kind of experiment: Guaiacol oxidation to tetraguaiacol by fatty acid-activated OleT. In kind it is biochemical. Particulars: DA-d19 compared with protiated DA as decoy.
The subject of data set [6] is cytochrome P450 OleT. In kind it is biochemical, Jeotgalicoccus sp. ATCC 8456.
Data set [7] deals with T1, cytochrome P450 OleT. The following applies: read-out: dissociation constant reported for EA; reported value; ref [2],[13]; cited from earlier work.
The target of data set [8] is T1, cytochrome P450 OleT. The following applies: ref [29], cited from earlier work.
Data set [9] deals with T1, cytochrome P450 OleT. The following applies: in vitro; ref [2]–[4]; cited from earlier work.
[10] abbreviates: 5 μM OleT, 200 mM KPi pH 7.5, 200 mM NaCl, absorbance changes at 392 and 417 nm.
[11] abbreviates: in the absence of norcarane, 10 mM H2O2, 440 nm, 4 °C.
Where [12] appears, read: in the presence of norcarane, 10 mM H2O2, 440 nm, 4 °C.

For the compound `C1CCC2CC2C1` (centres unmarked) [norcarane, bicyclo[4.1.0]heptane], on cytochrome P450 OleT [1] (from averaged ratio of rearranged products to norcaranol (G + E)), the radical lifetime is ~ 35 ps. At cytochrome P450 OleT [1] (in the presence of DA-d19), the “product yield (%) F” value is 1.9% and the “product yield (%) I” value is given as 0.55%. Moreover, the “product yield (%) C” value on cytochrome P450 OleT [1] (in the presence of DA-d19, 4-hydroxy-2-norcarene) was determined as 3.8%. The “product yield (%) cation” value on cytochrome P450 OleT [1] (in the presence of DA-d19, cation-rearranged product 3-cycloheptenol (A)) is 2.6% and 1.4%. Besides, on cytochrome P450 OleT [1] (in the presence of DA-d19, endo-2-norcaranol), the “product yield (%) E” value is 51.5% and 47.6%. Moreover, the “product yield (%) G” value at cytochrome P450 OleT [1] (in the presence of DA-d19, exo-2-norcaranol) was 38.9% and 33.4%. The “product yield (%) radical” value at cytochrome P450 OleT [1] (in the presence of DA-d19, radical-rearranged product 3-hydroxymethylcyclohexene (D)) was 0.75% and 0.47%. In addition, at cytochrome P450 OleT [1] (per trial, from product ratio and krearr = 2 × 10^8 s−1), the radical lifetime is 42 ps and 29 ps.
With `CCCCCCCC(=O)O` [C8:0], the Kd at cytochrome P450 OleT [2] (setting [10]) was 134 ± 11 µM. The maximal high-spin conversion at cytochrome P450 OleT [2] was found to be 25%. Also, on cytochrome P450 OleT [3], the “% metabolized” value came to 100%, the “product distribution (%) 1-alkene” value is recorded as 88.4 ± 0.4 ^b %, the “alcohol regiospecificity α” value was 11.3 ± 2.3% α and the “alcohol regiospecificity β” value worked out at 89.0 ± 5.3% β. Besides, the “product distribution (%) alcohols” value on cytochrome P450 OleT [3] came to 11.6 ± 0.8%.
At cytochrome P450 OleT [2], `CCCCCCCCCC(=O)O` [C10:0, decanoic acid] returned a Kd of 25 ± 8 µM and a maximal high-spin conversion of 36%. Moreover, on cytochrome P450 OleT [3], the “% metabolized” value is reported as 100%, the “product distribution (%) 1-alkene” value is on record as 90.0 ± 0.8 ^b %, the “alcohol regiospecificity β” value came out at 100% β and the “product distribution (%) alcohols” value is 10.0 ± 0.8%.
Regarding `[2H]C([2H])([2H])C([2H])([2H])C([2H])([2H])C([2H])([2H])C([2H])([2H])C([2H])([2H])C([2H])([2H])C([2H])([2H])C([2H])([2H])C([2H])([2H])C([2H])([2H])C(=O)O` [LA-d23], at cytochrome P450 OleT [4] (setting [11]), the “Ole-II decay rate constant (RRT2)” value amounted to 10.4 ± 0.5 s⁻¹ and the “Ole-II formation (RRT1)” value was 105 ± 10 s⁻¹. At cytochrome P450 OleT [4] (setting [12]), the “Ole-II decay rate constant (RRT2)” value came out at 12.5 ± 0.6 s⁻¹ and the “Ole-II formation (Ole-I decay) rate constant (RRT1)” value is 66 ± 3 s⁻¹.
Turning to `[2H]C([2H])([2H])C([2H])([2H])C([2H])([2H])C([2H])([2H])C([2H])([2H])C([2H])([2H])C([2H])([2H])C([2H])([2H])C([2H])([2H])C(=O)O` [DA-d19, perdeuterated decanoic acid], the “Ole-I decay rate constant” value on cytochrome P450 OleT [4] (asymptote of RRT1 vs H2O2 plot, 4 °C) is on record as ~ 60 s^−1. For the same compound, the “Ole-II decay rate constant” value at cytochrome P450 OleT [4] (independent of H2O2, 4 °C) was approximately 10 s⁻¹. The “product yields for radical clock substrates by decoy fatty acid” value on cytochrome P450 OleT [1] (comparison of decoy fatty acids) is given as “highest”. Besides, the “improvement of guaiacol oxidation rate” value at cytochrome P450 OleT [5] was “approximately 5 fold”.
Regarding `CC1CC1c1ccccc1` (centres unmarked) [methylcyclopropane], at cytochrome P450 OleT [1] (in the presence of DA-d19), the “product yield (%) ring-closed” value was 41.9% and 40.1%; the “product yield (%) ring-opened” value was 58.1% and 59.9%. The radical lifetime at cytochrome P450 OleT [1] (per trial, from product ratio and krearr = 3 × 10^11 s−1) came out at 2.4 ps.
With `CCCCCCCCCCCC(=O)O` [C12:0, lauric acid], at cytochrome P450 OleT [2], the Kd amounted to 2.8 ± 0.4 µM and the maximal high-spin conversion was found to be 61%. Also, the “product distribution (%) 1-alkene” value with cytochrome P450 OleT [6] (determined from direct quantitation) was 61.4 ± 7.6 ^a %. Also, in the data set on cytochrome P450 OleT [6] (slow H2O2 addition, share of total product), the “product distribution (%) alcohols” value was 38.6 ± 7.6%. Further, at cytochrome P450 OleT [3], the “% metabolized” value was 98.3 ± 0.2%, the “alcohol regiospecificity α” value amounted to 7.0 ± 1.3% α and the “alcohol regiospecificity β” value came out at 71.5 ± 15.5% β. Moreover, on cytochrome P450 OleT [3] (listed as LA), the “alcohol regiospecificity α” value is 7%. Also, the “alcohol regiospecificity γ” value on cytochrome P450 OleT [3] (share of alcohols hydroxylated at Cγ) was 21.5 ± 4.4% γ.
Compound `CCCCCC(=O)O` [C6:0] yielded a Kd on cytochrome P450 OleT [2] (setting [10]) of 164 ± 15 µM. The maximal high-spin conversion on cytochrome P450 OleT [2] was determined as 19%.
`CCCCCCCCCCCCCCCCCCCC(=O)O` [EA, eicosanoic acid]: at cytochrome P450 OleT [7], the Kd was less than 1 µM. Besides, at cytochrome P450 OleT [8] (at 5 °C, decarboxylation of EA), the Ole-II decay is reported as ~ 10 s^−1. The “substrate 2H KIE (kH/kD) for the decay of Ole-I” value on cytochrome P450 OleT [8] was more than 8. Further, the “chemoselectivity for 1-nonadecene production” value at cytochrome P450 OleT [9] was not below 95%.
Take `[2H]C([2H])([2H])C([2H])([2H])C([2H])([2H])C([2H])([2H])C([2H])([2H])C([2H])([2H])C([2H])([2H])C([2H])([2H])C([2H])([2H])C([2H])([2H])C([2H])([2H])C([2H])([2H])C([2H])([2H])C([2H])([2H])C([2H])([2H])C([2H])([2H])C([2H])([2H])C([2H])([2H])C([2H])([2H])C(=O)O` [EA-d39, perdeuterated eicosanoic acid]: on cytochrome P450 OleT [4] (setting [12]), the “Ole-II decay rate constant (RRT2)” value came to 10 ± 2 s⁻¹ and the “Ole-II formation (Ole-I decay) rate constant (RRT1)” value was 83 ± 3 s⁻¹.
